Results: patent US20050175535A1 (CV Therapeutics, Inc., priority 2000, published 2005)
Like-named read-outs stand apart in the source and are kept apart here.

Legend:
[1] = Coronary and peripheral artery blood flow velocity, HR and MAP in anesthetized closed-chest dogs; format: in vivo; parameters: APV: unit not given here; conditions: for APV / MAP / HR: CVT-3146 (1 ug/kg)
Protocol: Mongrel dogs (either sex, 17-21 kg; n=6) were obtained from a local vendor (Barton, Oxford, N.J.). Blood flow velocity in the coronary and cranial circumflex arteries was measured using Doppler transducer-tipped guide wires 0.014″ in diameter (FloWire®, model 1400J) purchased from Cardiometrics, Inc., Mountain View, Calif. For the positioning of the FloWire, a Judkins left coronary guiding catheter (JL3.5, 8F; Cordis) was used. Vascular arterial angiography was performed using Hypaque-76 contrast fluid (Bracco Diagnostics, Inc., Princeton, N.J.; Lot #9H28899) and a mobile fluoroscopic unit (Philips, BV 29). Systemic arterial blood pressure was measured using an electronic transducer-tipped catheter (Millar).
Following the administration of heparin (20 U/kg+100 U/hr), the pressure transducer-tipped catheter was introduced through the left femoral artery and positioned in the descending aorta. The Doppler FloWire was introduced through the right femoral artery. A peripheral vein was cannulated for the administration of all drugs. […] The sequence of positioning of the Doppler catheter was reversed in consecutive experiments. […] All parameters were allowed to recover (>30 min) to their respective baseline values between two consecutive drug administrations. […] The effect of adenosine on both coronary and peripheral artery APV was studied in five of the six dogs.
The following parameters were monitored and recorded: Average peak coronary and peripheral artery blood flow velocity (APV), mean arterial blood pressure (MAP) (mmHg), and sinus cycle length (SCL; msec). Differences in measure parameters were tested for statistical significance using ANOVA and Student's t test corrected for multiple measurements. Data are expressed as the mean±SEM.

A2A adenosine receptors = A2A adenosine receptors (Rattus norvegicus, UniProt P30543); experiment: Competitive radioligand binding, [3H]ZM241385, PC12 cell membranes
Protocol: Rat pheochromocytoma PC12 cells were obtained from the American Type Culture Collection and grown in DMEM with 5% fetal bovine serum, 10% horse serum, 0.5 mmol/L L-glutamine, 100 U/mL penicillin, 0.1 mg/l mL streptomycin, and 2.5 μg/mL amphotericin.
Cell membranes were harvested from the cell lines by detaching cells from the culture plates into ice-cold 50 mmol/L Tris-HCl buffer (pH 7.4). The cell suspensions were homogenized and centrifuged at 48,000g for 15 minutes. The pellets were washed three times by re-suspension in ice-cold Tris-HCl buffer and centrifugation. The final pellet was re-suspended in Tris-HCl, aliquoted and frozen at −80° C. until used for receptor binding assays.
Briefly, membrane suspensions, obtained from cells expressing either adenosine receptor subtypes A1, A2A, A2B or A3were incubated for 2 hours at room temperature in 50 mmol/L Tris-HCl buffer (pH 7.4) containing ADA (1U/mL). […] At the end of the incubation, free radioligand was separated from membrane-bound radioligand by filtration through Whatman GF/C glass fiber filters using a Brandel tissue harvester (Gaithersburg, Md.). Triplicate determinations were performed for each concentration of unlabelled compound.

[2] = system: rat isolated perfused heart; experiment: Coronary conductance / coronary perfusion pressure in isolated perfused rat hearts; conditions: for EC50: Rattus norvegicus

Sequence of A2A adenosine receptors (P30543 whole entry, the tested form may be a part): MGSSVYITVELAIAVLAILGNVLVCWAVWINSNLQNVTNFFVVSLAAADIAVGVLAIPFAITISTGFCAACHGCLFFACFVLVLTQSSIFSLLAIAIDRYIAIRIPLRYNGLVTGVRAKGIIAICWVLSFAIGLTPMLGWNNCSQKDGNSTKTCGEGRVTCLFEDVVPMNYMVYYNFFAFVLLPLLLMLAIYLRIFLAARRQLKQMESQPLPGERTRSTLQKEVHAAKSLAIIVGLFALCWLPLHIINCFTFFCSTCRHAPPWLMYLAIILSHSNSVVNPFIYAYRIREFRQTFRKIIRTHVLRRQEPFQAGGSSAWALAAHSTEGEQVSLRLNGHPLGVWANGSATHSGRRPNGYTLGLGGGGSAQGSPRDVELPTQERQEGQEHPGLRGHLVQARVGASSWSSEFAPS

## CNC(=O)c1cnn(-c2nc(N)c3ncn(C4O[C@@H](CO)[C@H](O)[C@@H]4O)c3n2)c1 (stereo partly drawn) [CVT-3146]
[1]; CVT-3146 1 μg/kg, adenosine 200 or 300 μg/kg iv bolus, anesthetized dogs
  time for all parameters to return to baseline post injection: ≤ 5 min
[1]; Coronary, time 1′, Baseline 49 ± 7
  APV: 100 ± 12
[1]; Coronary, time 1′, Baseline 128 ± 7
  MAP: 112 ± 7 mmHg
[1]; Coronary, time 1′, Baseline 171 ± 8
  HR: 186 ± 7
[1]; Coronary, time 1.5′, Baseline 49 ± 7
  APV: 97 ± 11
[1]; Coronary, time 1.5′, Baseline 128 ± 7
  MAP: 110 ± 7 mmHg
[1]; Coronary, time 1.5′, Baseline 171 ± 8
  HR: 186 ± 7
[1]; Coronary, time 2′, Baseline 49 ± 7
  APV: 88 ± 11
[1]; Coronary, time 2′, Baseline 128 ± 7
  MAP: 110 ± 7 mmHg
[1]; Coronary, time 2′, Baseline 171 ± 8
  HR: 185 ± 7
[1]; Coronary, time 3′, Baseline 49 ± 7
  APV: 81 ± 11
[1]; Coronary, time 3′, Baseline 128 ± 7
  MAP: 110 ± 6 mmHg
[1]; Coronary, time 3′, Baseline 171 ± 8
  HR: 185 ± 7
[1]; Coronary, time 4′, Baseline 49 ± 7
  APV: 75 ± 11
[1]; Coronary, time 4′, Baseline 128 ± 7
  MAP: 110 ± 6 mmHg
[1]; Coronary, time 4′, Baseline 171 ± 8
  HR: 183 ± 8
[1]; Coronary, time 5′, Baseline 49 ± 7
  APV: 72 ± 11
[1]; Coronary, time 5′, Baseline 128 ± 7
  MAP: 112 ± 6 mmHg
[1]; Coronary, time 5′, Baseline 171 ± 8
  HR: 183 ± 8
[1]; Coronary, time 6′, Baseline 49 ± 7
  APV: 65 ± 11
[1]; Coronary, time 6′, Baseline 128 ± 7
  MAP: 113 ± 6 mmHg
[1]; Coronary, time 6′, Baseline 171 ± 8
  HR: 182 ± 8
[1]; Coronary, time 7′, Baseline 49 ± 7
  APV: 63 ± 12
[1]; Coronary, time 7′, Baseline 128 ± 7
  MAP: 115 ± 6 mmHg
[1]; Coronary, time 7′, Baseline 171 ± 8
  HR: 181 ± 8
[1]; Coronary, time 8′, Baseline 49 ± 7
  APV: 55 ± 11
[1]; Coronary, time 8′, Baseline 128 ± 7
  MAP: 117 ± 6 mmHg
[1]; Coronary, time 8′, Baseline 171 ± 8
  HR: 180 ± 8
[1]; Coronary, time 9′, Baseline 49 ± 7
  APV: 55 ± 11
[1]; Coronary, time 9′, Baseline 128 ± 7
  MAP: 119 ± 6 mmHg
[1]; Coronary, time 9′, Baseline 171 ± 8
  HR: 177 ± 9
[1]; Coronary, time 10′, Baseline 49 ± 7
  APV: 53 ± 11
[1]; Coronary, time 10′, Baseline 128 ± 7
  MAP: 120 ± 6 mmHg
[1]; Coronary, time 10′, Baseline 171 ± 8
  HR: 176 ± 9
[1]; Coronary, time 10″, Baseline 49 ± 7
  APV: 84 ± 4
[1]; Coronary, time 10″, Baseline 171 ± 8
  HR: 177 ± 8
[1]; Coronary, time 20″, Baseline 49 ± 7
  APV: 106 ± 8
[1]; Coronary, time 20″, Baseline 128 ± 7
  MAP: 116 ± 9 mmHg
[1]; Coronary, time 20″, Baseline 171 ± 8
  HR: 186 ± 9
[1]; Coronary, time 30″, Baseline 49 ± 7
  APV: 109 ± 10
[1]; Coronary, time 30″, Baseline 128 ± 7
  MAP: 117 ± 7 mmHg
[1]; Coronary, time 30″, Baseline 171 ± 8
  HR: 188 ± 7
[1]; Peripheral, time 1′, Baseline 34 ± 8
  APV: 42 ± 4
[1]; Peripheral, time 1′, Baseline 116 ± 8
  MAP: 102 ± 6 mmHg
[1]; Peripheral, time 1′, Baseline 162 ± 9
  HR: 182 ± 7
[1]; Peripheral, time 1.5′, Baseline 34 ± 8
  APV: 42 ± 4
[1]; Peripheral, time 1.5′, Baseline 116 ± 8
  MAP: 99 ± 7 mmHg
[1]; Peripheral, time 1.5′, Baseline 162 ± 9
  HR: 184 ± 7
[1]; Peripheral, time 2′, Baseline 34 ± 8
  APV: 40 ± 4
[1]; Peripheral, time 2′, Baseline 116 ± 8
  MAP: 98 ± 7 mmHg
[1]; Peripheral, time 2′, Baseline 162 ± 9
  HR: 187 ± 8
[1]; Peripheral, time 3′, Baseline 34 ± 8
  APV: 40 ± 4
[1]; Peripheral, time 3′, Baseline 116 ± 8
  MAP: 97 ± 7 mmHg
[1]; Peripheral, time 3′, Baseline 162 ± 9
  HR: 187 ± 8
[1]; Peripheral, time 4′, Baseline 34 ± 8
  APV: 39 ± 4
[1]; Peripheral, time 4′, Baseline 116 ± 8
  MAP: 100 ± 6 mmHg
[1]; Peripheral, time 4′, Baseline 162 ± 9
  HR: 186 ± 8
[1]; Peripheral, time 5′, Baseline 34 ± 8
  APV: 37 ± 5
[1]; Peripheral, time 5′, Baseline 116 ± 8
  MAP: 101 ± 6 mmHg
[1]; Peripheral, time 5′, Baseline 162 ± 9
  HR: 185 ± 8
[1]; Peripheral, time 10″, Baseline 34 ± 8
  APV: 34 ± 4
[1]; Peripheral, time 10″, Baseline 116 ± 8
  MAP: 114 ± 9 mmHg
[1]; Peripheral, time 10″, Baseline 162 ± 9
  HR: 167 ± 6
[1]; Peripheral, time 20″, Baseline 34 ± 8
  APV: 38 ± 4
[1]; Peripheral, time 20″, Baseline 116 ± 8
  MAP: 107 ± 8 mmHg
[1]; Peripheral, time 20″, Baseline 162 ± 9
  HR: 177 ± 7
[1]; Peripheral, time 30″, Baseline 34 ± 8
  APV: 41 ± 4
[1]; Peripheral, time 30″, Baseline 116 ± 8
  MAP: 111 ± 6 mmHg
[1]; Peripheral, time 30″, Baseline 162 ± 9
  HR: 183 ± 8
A2A adenosine receptors
  Ki: 1730 nM
[2]; 10 nM, isolated rat heart
  decrease in coronary perfusion pressure: 23 mmHg
[2]; CVT-3146 10 nM
  effect of 60 nM CPX (A1 antagonist) on the increase in coronary conductance: not affected
  effect of 60 nM ZM241385 (A2a antagonist) on the increase in coronary conductance: completely reversed
[2]; CVT-3146 10 nM, baseline 0.16±0.02, n=6 hearts
  coronary conductance: 0.22±0.01 ml mm Hg−1 min−1
[2]; read-out: EC50, Coronary Conductance (Rat Isolated Heart)
  EC50: 6.4 nM
[2]; read-out: pEC50 ± SEM, Coronary Conductance (Rat Isolated Heart) (converted)
  EC50: 6.46 nM
[2]; isolated rat heart
  agonist behaviour with respect to coronary artery conductance: full agonist
[2]; isolated rat hearts, in words
  effect on coronary conductance: increased coronary conductance in a concentration-dependent manner
